Measurements published in publication PMC10485820 (European Journal of Pharmaceutical Sciences, 2023).

Key:
[1] = Radioactivity recovery in feces after oral administration to rats (unpublished); type: in vivo
[2] = molecular target: T1, OAT3 (Homo sapiens, UniProt Q8TCC7); assay: Preclinical transporter substrate assessment (unpublished); type: in vitro ADME
T1 sequence (Q8TCC7 1-542): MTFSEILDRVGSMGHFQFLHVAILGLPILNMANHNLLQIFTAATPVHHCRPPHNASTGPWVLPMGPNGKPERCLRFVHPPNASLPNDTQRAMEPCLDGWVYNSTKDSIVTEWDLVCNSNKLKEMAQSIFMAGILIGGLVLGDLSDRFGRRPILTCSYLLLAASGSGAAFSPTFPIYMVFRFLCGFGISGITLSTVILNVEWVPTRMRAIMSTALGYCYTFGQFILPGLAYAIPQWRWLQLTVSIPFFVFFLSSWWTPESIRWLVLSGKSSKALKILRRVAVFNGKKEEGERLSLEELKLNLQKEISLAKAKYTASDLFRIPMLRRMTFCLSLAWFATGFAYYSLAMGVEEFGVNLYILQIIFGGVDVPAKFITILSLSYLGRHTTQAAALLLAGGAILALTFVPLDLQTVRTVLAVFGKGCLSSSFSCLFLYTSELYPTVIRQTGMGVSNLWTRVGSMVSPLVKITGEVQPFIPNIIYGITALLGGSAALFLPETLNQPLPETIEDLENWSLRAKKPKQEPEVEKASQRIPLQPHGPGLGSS

[3] = molecular target: T2, breast cancer resistance protein (Homo sapiens, UniProt Q9UNQ0); assay: as above; type: in vitro ADME
T2 sequence (Q9UNQ0 1-655): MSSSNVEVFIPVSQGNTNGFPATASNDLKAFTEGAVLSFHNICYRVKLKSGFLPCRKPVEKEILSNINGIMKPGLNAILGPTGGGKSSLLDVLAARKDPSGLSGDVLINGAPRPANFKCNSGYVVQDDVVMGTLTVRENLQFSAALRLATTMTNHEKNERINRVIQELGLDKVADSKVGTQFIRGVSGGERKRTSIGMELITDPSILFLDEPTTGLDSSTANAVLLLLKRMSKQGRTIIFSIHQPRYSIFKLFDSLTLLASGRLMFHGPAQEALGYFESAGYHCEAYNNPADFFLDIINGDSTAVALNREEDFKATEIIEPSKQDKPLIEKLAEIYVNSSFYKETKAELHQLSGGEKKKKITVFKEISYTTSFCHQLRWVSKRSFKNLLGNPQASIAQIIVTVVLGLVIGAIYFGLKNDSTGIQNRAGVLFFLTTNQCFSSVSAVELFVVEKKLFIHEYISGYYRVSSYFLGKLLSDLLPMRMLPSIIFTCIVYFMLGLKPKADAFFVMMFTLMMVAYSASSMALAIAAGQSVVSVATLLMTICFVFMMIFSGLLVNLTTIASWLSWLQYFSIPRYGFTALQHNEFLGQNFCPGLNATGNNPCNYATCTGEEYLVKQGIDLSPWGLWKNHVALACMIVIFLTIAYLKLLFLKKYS

[4] = Dissolution profile of HSK7653 tablets at pH 4.5 acetum; type: physicochemical
Description: (§1) The development of the DLM was complex.

[5] = Mass balance study (CTR20201559); type: in vivo, human
[6] = Blood-to-plasma partition ratio and fraction unbound in plasma; type: in vitro ADME; settings: Measured (in vivo)
Description: as §1

[7] = Physicochemical parameters (log P, pKa) from experimental outcomes; settings: Measured (in vitro)
Description: as §1

[8] = molecular target: T3, MATE1 (Homo sapiens, UniProt Q96FL8); assay: Preclinical transporter substrate assessment (unpublished); type: in vitro ADME
T3 sequence (Q96FL8 1-570): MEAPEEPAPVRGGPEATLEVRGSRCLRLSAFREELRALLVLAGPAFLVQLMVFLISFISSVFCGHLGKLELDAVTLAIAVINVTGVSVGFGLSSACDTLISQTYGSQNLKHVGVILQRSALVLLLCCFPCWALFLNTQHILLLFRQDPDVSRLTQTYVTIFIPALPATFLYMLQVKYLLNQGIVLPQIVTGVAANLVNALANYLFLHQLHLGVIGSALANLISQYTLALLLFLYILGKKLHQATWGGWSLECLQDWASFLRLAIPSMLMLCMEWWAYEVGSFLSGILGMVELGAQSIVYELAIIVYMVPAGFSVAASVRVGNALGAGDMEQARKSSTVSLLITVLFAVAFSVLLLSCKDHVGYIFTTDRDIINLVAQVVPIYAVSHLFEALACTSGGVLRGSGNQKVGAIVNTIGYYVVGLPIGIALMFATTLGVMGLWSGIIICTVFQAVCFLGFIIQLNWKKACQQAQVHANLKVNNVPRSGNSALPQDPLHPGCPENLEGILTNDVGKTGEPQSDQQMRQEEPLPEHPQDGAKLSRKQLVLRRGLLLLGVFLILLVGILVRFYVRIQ

[9] = Renal clearance from in vivo clinical study; settings: human, oral; Measured (in vivo); read-out: CLR (renal clearance) (converted)
Description: as §1

[10] = Bioavailability in beagle dogs (unpublished); settings: dog, in vivo, oral
[11] = Drug-drug interaction study of HSK7653 with metformin, multiple doses, Chinese healthy volunteers (CTR20191549): pharmacokinetics; settings: human, in vivo, oral, Multiple dose (D1 35 mg; D8/D15/D22 25 mg) with metformin, fasted
[12] = mass balance study, unpublished

CS(=O)(=O)n1cc2c(n1)CN([C@@H]1C[C@H](N)[C@@H](c3cc(F)ccc3F)O[C@@H]1C(F)(F)F)C2 [HSK7653]
Radioactivity recovered in feces [1]: approximately 62.1%
Transporter substrate assessment [2]: not a common transport substrate
Transporter substrate assessment [3]: not a common transport substrate
Fasted Dissolution (%) ([4]; time 0.167 h): 70.52%
Fasted Dissolution (%) ([4]; time 0.333 h): 95.97%
Fasted Dissolution (%) ([4]; time 0.50 h): 100.0%
Fecal excretion of unchanged compound ([5]; mass balance study): 7.40%
Unchanged drug excreted by the kidney ([5]; mass balance study): 68.1%
Unrecovered radioactive substances (unknown pathway) ([5]; mass balance study): 4.1%
Detected (recovered) radioactivity [5, 12]: 95.9%
Unextracted radioactive substrates in feces [5, 12]: 2.99%
Unextracted radioactive substrates in urine [5, 12]: 1.99%
Unextracted radioactivity in urine and feces (sum) ([5]; sum of unextracted radioactivity in urine and feces): approximately 4.98%
fraction unbound [6]: 0.143
logP [7]: 1.42
pKa ([7]; Monoprotic base): 6.75
Transporter substrate assessment [8]: not a common transport substrate
CL renal [9]: 6.22 mL/min
bioavailability [10]: 70.9%
Cmax [11]: 533 ng/mL
clearance ([11]; read-out: CL Obs (converted)): 9.17 mL/min
Vd/F ([11]; read-out: VZ/F Obs): 1.08 L/kg
